“Also recorded” adds a separate entry of the source. Structures can show the parent of a compound that is named as a salt. Where two headings read alike, the source gives them in different places. Values belong to the compound of their own block, whether it stands above or below them.
Experiments:
T2R4 [1] = target: T1, T2R4 (Homo sapiens, UniProt Q9NYW5); settings: cited from earlier work
T1 sequence (Q9NYW5 1-299): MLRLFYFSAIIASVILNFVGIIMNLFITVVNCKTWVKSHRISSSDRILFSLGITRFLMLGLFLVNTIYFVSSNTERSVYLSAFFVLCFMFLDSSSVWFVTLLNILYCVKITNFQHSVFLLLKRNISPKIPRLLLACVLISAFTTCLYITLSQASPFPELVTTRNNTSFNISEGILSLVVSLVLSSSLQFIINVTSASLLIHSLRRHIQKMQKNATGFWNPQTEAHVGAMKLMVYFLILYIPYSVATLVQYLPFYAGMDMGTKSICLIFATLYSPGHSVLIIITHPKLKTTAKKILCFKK

T2R14 = target: T2, T2R14 (Homo sapiens, UniProt Q9NYV8); assay: Calcium mobilization assay, HEK293T cells stably expressing T2R14; assay type: cell-based; settings: for Calcium response by compound alone, T2R14 cells: 100 μM; for Inhibition of DPH-activated T2R14 calcium mobilization: 3–200 μM AGE with DPH 500 μM
T2 sequence (Q9NYV8 1-317): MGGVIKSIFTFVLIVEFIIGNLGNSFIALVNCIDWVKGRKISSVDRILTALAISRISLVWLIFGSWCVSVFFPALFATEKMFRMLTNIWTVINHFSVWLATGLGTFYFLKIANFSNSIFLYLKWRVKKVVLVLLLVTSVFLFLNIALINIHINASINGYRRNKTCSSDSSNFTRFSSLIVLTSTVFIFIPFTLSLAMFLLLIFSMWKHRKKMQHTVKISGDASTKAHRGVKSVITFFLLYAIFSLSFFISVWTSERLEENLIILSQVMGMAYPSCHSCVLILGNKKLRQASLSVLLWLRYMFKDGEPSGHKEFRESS
Text: (§1) Human Embryonic Kidney (HEK293T) cell line was purchased from ATCC (Manassas, VA, USA). N-terminal FLAG epitope tagged human TAS2R4, TAS2R14, and TAS2R20 genes were codon-optimized for expression in mammalian cells and cloned into the KpnI-NotI site of pcDNA 3.1/Hygro (+) expression vector, and they were commercially synthesized (GenScript Inc., Piscataway, MA, USA) as previously described in Reference. We generated stable HEK293T cells expressing the above T2Rs in the selection medium containing 200 μg/mL hygromycin as described previously in References.
(§2) Calcium mobilization assays on each T2R expressing stable cells were performed by incubation with Fluo-4 NW dye containing probenecid (2.5 mM) for 35 min at 37 °C, followed by 35 min at room temperature. We then treated the cells either with the putative agonist alone or in combination with the AGE compound. To elucidate the action of AGEs on T2Rs, the cells were initially treated with a fixed concentration (100 μM). To determine IC50 for AGE compounds, the agonist concentration was kept constant whilst the AGE compound was added in a concentration dependent manner (3 μM to 200 μM). To determine EC50 for the agonists, we used a concentration range from 3 μM to 200 μM. The Flexstation-3 automated fluorescence microplate reader (Molecular devices) was used to measure the calcium at 525 nm emission, followed by excitation at 494 nm. ΔRFU (relative fluorescence units) were calculated by the system based on the difference between the maximum response and minimum response. We used HEK293T cells as the control for baseline subtraction. The data were collected from at least three independent experiments performed in triplicates and analyzed using GraphPad Prism V. 6.0 (GraphPadSoftware, La Jolla, CA, USA).

T2R20 = target: T3, T2R20 (Homo sapiens, UniProt P59543); assay: Calcium mobilization assay, HEK293T cells stably expressing T2R20; assay type: cell-based; settings: for Activation of T2R20 by compound alone: 100 μM; for EC50: 3–200 μM, ± standard deviation, read-out: EC50, activation of T2R20 calcium mobilization
T3 sequence (P59543 1-309): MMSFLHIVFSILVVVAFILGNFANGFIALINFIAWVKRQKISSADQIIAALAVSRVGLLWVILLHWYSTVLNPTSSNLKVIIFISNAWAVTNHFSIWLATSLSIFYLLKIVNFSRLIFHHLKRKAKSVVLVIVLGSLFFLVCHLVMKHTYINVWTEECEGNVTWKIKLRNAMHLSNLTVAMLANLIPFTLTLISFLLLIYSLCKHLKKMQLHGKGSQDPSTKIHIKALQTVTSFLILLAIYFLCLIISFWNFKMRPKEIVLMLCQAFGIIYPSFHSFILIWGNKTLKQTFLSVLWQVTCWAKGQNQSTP
Text: as §1, §2

T2R4 [2] = target: T1, T2R4; assay: Calcium mobilization assay, HEK293T cells stably expressing T2R4; assay type: cell-based; settings: for Calcium mobilization by compound alone, T2R4 cells: 100 μM, compared to basal; for IC50: 3–200 μM AGE with quinine 1 mM, ± standard deviation, read-out: IC50, inhibition of quinine-activated T2R4 calcium mobilization
Text: as §1, §2

[3] = Solubility in calcium assay buffer; assay type: physicochemical; settings: 1X HBSS, 20 mM HEPES
Text: The cell-culture medium was composed of Dulbecco’s modified Eagle’s medium-F12 (Gibco, Life technologies, Carlsbad, CA, USA) supplemented with 10% heat-inactivated fetal bovine serum (Sigma, Burlington, MA, USA) and 1% penicillin-streptomycin (Gibco, Life technologies). We used hygromycin (Sigma Aldrich, Oakville, ON, Canada) in the selection medium to generate stable cells. All bitter compounds (quinine hydrochloride, diphenhydramine or DPH, and cromolyn) were purchased from Sigma Aldrich (Oakville, ON, Canada). We purchased glyoxal-derived lysine dimer (GOLD) and Nε-Carboxymethyl-L-lysine (CML) from PolyPeptide Laboratories (Strasbourg, France). All the compounds were freshly prepared using calcium assay buffer (1X HBSS, 20 mM HEPES) on the day of the experiment. Calcium sensitive dye Fluo-4 NW kit was purchased from Life technologies (Carlsbad, CA USA).

Compound: NCCCC[C@@H](C(=O)O)N(CC(=O)O)CC(=O)O [BCML, Nα, Nα-bis(carboxymethyl)-L-lysine]
IC50 (T2R4 [1]; read-out: IC50 against quinine, T2R4 antagonist): 0.06 µM

Compound: N[C@@H](CCCCNCC(=O)O)C(=O)O [CML, Nε-Carboxymethyl-L-lysine]
Calcium response by compound alone, T2R14 cells (T2R14): did not show any calcium response | Inhibition of DPH-activated T2R14 calcium mobilization (T2R14): no significant effect in suppressing the DPH activation of T2R14 | Activation of T2R20 by compound alone (T2R20): activated T2R20 | EC50 (T2R20): 65.3 ± 17.8 µM | Calcium mobilization by compound alone, T2R4 cells (T2R4 [2]): did not cause a significant increase in calcium mobilization | IC50 (T2R4 [2]): 32.6 ± 9.5 µM

Compound: CC(NCCCC[C@H](N)C(=O)O)C(=O)O (some centres unmarked) [Nε-Carboxyethyl Lysine (CEL), Nε-Carboxyethyl Lysine]
Solubility in calcium assay buffer [3]: insoluble or only slightly soluble

Compound: C=C[C@H]1C[N@@]2CC[C@H]1C[C@H]2[C@H](O)c1ccnc2ccc(OC)cc12 [quinine, quinine hydrochloride]
EC50 (T2R4 [1]; agonist): 1000 µM

Now from value to compound, other results behind:

Calcium response by compound alone, T2R14 cells (T2R14): did not show any calcium response | Activation of T2R20 by compound alone (T2R20): activated T2R20 | EC50 (T2R20): 79.3 ± 29.2 µM | IC50 (T2R4 [2]): 10.5 ± 4.7 µM
Compound: NC(CCCCn1cc[n+](CCCCC(N)C(=O)O)c1)C(=O)O (centres unmarked) [GOLD, glyoxal-derived lysine dimer]
Inhibition of DPH-activated T2R14 calcium mobilization (T2R14): did not generate a reverse sigmoid curve to determine the IC50 value; also recorded: no dose-dependent inhibition observed | Calcium mobilization by compound alone, T2R4 cells (T2R4 [2]): did not cause a significant increase in calcium mobilization

EC50 (T2R20): 50.7 ± 15.1 µM
Compound: O=C(O)c1cc(=O)c2c(OCC(O)COc3cccc4oc(C(=O)O)cc(=O)c34)cccc2o1 [cromolyn, reference compound]

Solubility in calcium assay buffer [3]: insoluble or only slightly soluble
Compound: Pentosidine

— paper PMC6628017, “Advanced Glycation End-Products Can Activate or Block Bitter Taste Receptors” (Nutrients, 2019)
